Source: patent US10750729B2, “Pig for atrioventricular block model, monkey for atrioventricular block model, guinea pig for atrioventricular block model, and use thereof” (Toho University, priority 2012, dated 2020)

How the values were obtained:
Guinea pigs (Hartley) = test: Test Example 3-2: electrocardiogram and aortic pressure of halothane-anesthetized guinea pigs (BAF312); assay type: in vivo; settings: guinea pig
Method: Guinea pigs (Hartley, body weight: 420 g to 650 g, male, obtained from Japan SLC, Inc.) were each anesthetized by intraperitoneally administering thereto sodium thiopental (product of Mitsubishi Tanabe Pharma Corporation) at 50 mg/kg. Next, a tracheal cannula was inserted into each of the guinea pigs. While their body temperature was being maintained at 37° C. with a warming pad, the guinea pigs were allowed to inhale 100% by volume oxygen and 1% by volume vaporized halothane (product of Takeda Pharmaceutical Company Limited.) using an artificial respirator for experimental animals (SN-480-7; product of shimano Co., Ltd.). Here, the artificial respirator for experimental animals was set to a tidal volume of 10 mL/kg and a respiration rate of 60 strokes/min. Next, a cannula for drug administration was inserted to their left femoral vein. In addition, a heparinized catheter for monitoring the blood pressure was inserted to the aorta through the left femoral […]. Then, ECG standard limb II leads was continuously recorded.
Each of the guinea pigs (n=12) of Example 3 was recorded for an electrocardiogram before administration of a drug or a solvent.
BAF312 (product of Meiji Seika Pharma Co., Ltd.) was dissolved in dimethyl sulfoxide (hereinafter may be referred to as “DMSO”; product of Sigma-Aldrich Inc.) so as to have a concentration of 0.003 mg/mL.
(§1) After the evaluation of base control, the cannula for drug administration was inserted, and the above-prepared BAF312 solution was intravenously administered to each of the guinea pigs (n=4) of Example 3 for 10 min at a dose of 0.001 mg/kg. These guinea pigs were evaluated for parameters by the following evaluation methods at 5 min, 10 min, 15 min, 20 min, 30 min, 45 min or 60 min after the administration of the BAF312 solution.
BAF312 (product of Meiji Seika Pharma Co., Ltd.) was dissolved in DMSO (product of Sigma-Aldrich Inc.) so as to have a concentration of 0.03 mg/mL.
as §1, with “0.01” for “0.001”
The aortic pressure and the electrocardiogram were monitored using a polygraph system (RM-6000, product of NIHON KOHDEN Co. Ltd.) and analyzed with a full-automated analysis system in real time (WinVAS ver. 3, 1.1R03; product of Physio-Tech Co., Ltd).
Parameters of the electrocardiogram were measured three times, and the obtained values were averaged. Atrial rate was calculated from PP interval of the electrocardiogram. Ventricular rate was calculated from RR interval of the electrocardiogram.
The measurements in FIGS. 6A to 6E are expressed as mean±SE (n=4). The difference between the parameters was evaluated with one-way repeated measures analysis of variance (ANOVA). It was considered that p<0.05 is statistically significant. In FIG. 6A to 6C and FIG. 6E, “white circle,” “white square” and “white triangle” each mean absence of a significant difference relative to the value of the evaluation of base control (C), and “black circle” means presence of a significant difference relative to the value of the evaluation of base control (C).
Also, in FIG. 6D, “white circle” means absence of development of atrioventricular block or presence of development of first-degree atrioventricular block, “white triangle” means presence of development of advanced atrioventricular block, “x-mark” means presence of development of third-degree atrioventricular block (complete atrioventricular block), and #1 to 4 refer to each individual.

rat = settings: cited from earlier work
[1] = high-dose 0.01 mg/kg/10 min i.v.
[2] = low-dose 0.001 mg/kg/10 min i.v.
[3] = low-dose 0.001 mg/kg/10 min i.v., from 5 min to 60 min

| change in QRS width (Guinea pigs (Hartley); [1]) | change in atrial rate (Guinea pigs (Hartley); [1]) | change in PR interval (Guinea pigs (Hartley); high-dose 0.01 mg/kg/10 min i.v., before development of atrioventricular block) | change in ventricular rate (Guinea pigs (Hartley); high-dose 0.01 mg/kg/10 min i.v., from 10 min to 15 min) | individuals that developed complete atrioventricular block (Guinea pigs (Hartley); high-dose 0.01 mg/kg/10 min i.v., n=4) | change in PR interval (Guinea pigs (Hartley); [2]) | change in QRS width (Guinea pigs (Hartley); [2]) | change in atrial rate (Guinea pigs (Hartley); [3]) | change in ventricular rate (Guinea pigs (Hartley); [3]) | Compound | change in QT interval (Guinea pigs (Hartley); [1]) | change in blood pressure (MBP) (Guinea pigs (Hartley); [1]) | correspondence of P wave and R wave in the electrocardiogram (Guinea pigs (Hartley); high-dose 0.01 mg/kg/10 min i.v., 45 min after start) | change in QT interval (Guinea pigs (Hartley); [2]) | change in blood pressure (MBP) (Guinea pigs (Hartley); [2]) | prolongation of PR interval (rat) |
| --- | --- | --- | --- | --- | --- | --- | --- | --- | --- | --- | --- | --- | --- | --- | --- |
| no significant change | no significant change | prolonged | decrease | all of the four individuals | prolongation of PR interval was observed | no significant change | decrease | decrease | CCc1cc(/C(C)=N/OCc2ccc(C3CCCCC3)c(C(F)(F)F)c2)ccc1CN1CC(C(=O)O)C1 [BAF312, siponimod] | no significant change | increase | the atrium and the ventricle are contracted independently of each other at their own individual rhythms | no significant change | increase | – |
| – | – | – | – | – | – | – | – | – | CCCCCCCCCCCCC/C=C/[C@@H](O)[C@@H](N)COP(=O)(O)O [sphingosine-1-phosphate] | – | – | – | – | – | not observed |
